In ChEMBL document CHEMBL3751752, “Total synthesis of a biotinylated rocaglate: Selective targeting of the translation factors eIF4AI/II” (Bioorg Med Chem Lett, 2016):
Calls of active or inactive are those of the source. No cut-off for these calls is given here.

Assays:
[1] = molecular target: Eukaryotic initiation factor 4A-I (Mus musculus) (UniProt P60843); assay: Binding affinity to eIF4A1 in mouse embryonic fibroblasts by Western blot method
[2] = molecular target: ATP-dependent RNA helicase DDX3X (Mus musculus) (UniProt Q62167); assay: Binding affinity to DDX3 in mouse embryonic fibroblasts by Western blot method
[3] = molecular target: Eukaryotic initiation factor 4A-III (Mus musculus) (UniProt Q91VC3); assay: Binding affinity to eIF4A3 in mouse embryonic fibroblasts by Western blot method
[4] = molecular target: Eukaryotic initiation factor 4A-I (Mus musculus) (UniProt P60843); assay: Binding affinity to eIF4A1 in mouse embryonic fibroblasts at 20 uM by streptavidin pulldown assay
[5] = molecular target: Eukaryotic initiation factor 4A-II (Mus musculus) (UniProt P10630); assay: Binding affinity to eIF4A2 in mouse embryonic fibroblasts at 20 uM by streptavidin pulldown assay
[6] = molecular target: Eukaryotic initiation factor 4A-II (Mus musculus) (UniProt P10630); assay: Binding affinity to eIF4A2 in mouse embryonic fibroblasts by Western blot method
[7] = molecular target: Eukaryotic initiation factor 4A-I (Homo sapiens) (UniProt P60842); assay: Inhibition of e1F4A1 (unknown origin) in rabbit reticulocyte assessed as capped-dependent translation incubated for 1 hr by dual glo luciferase assay
[8] = molecular target: Eukaryotic translation initiation factor 4E (Mus musculus) (UniProt P63073); assay: Binding affinity to eIF4E in mouse embryonic fibroblasts by Western blot method
[9] = molecular target: T1, Prohibitin 1 (Mus musculus) (UniProt P67778); assay: Binding affinity to prohibitin in mouse embryonic fibroblasts by Western blot method
T1 sequence (whole entry): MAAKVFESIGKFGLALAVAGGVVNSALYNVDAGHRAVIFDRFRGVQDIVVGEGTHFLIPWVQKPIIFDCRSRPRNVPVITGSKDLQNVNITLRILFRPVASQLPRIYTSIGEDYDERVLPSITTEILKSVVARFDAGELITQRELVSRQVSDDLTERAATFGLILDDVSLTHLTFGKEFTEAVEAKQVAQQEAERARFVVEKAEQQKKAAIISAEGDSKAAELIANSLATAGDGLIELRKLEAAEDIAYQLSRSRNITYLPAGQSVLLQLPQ

Sequence of Eukaryotic initiation factor 4A-I (Homo sapiens) (P60842 whole entry): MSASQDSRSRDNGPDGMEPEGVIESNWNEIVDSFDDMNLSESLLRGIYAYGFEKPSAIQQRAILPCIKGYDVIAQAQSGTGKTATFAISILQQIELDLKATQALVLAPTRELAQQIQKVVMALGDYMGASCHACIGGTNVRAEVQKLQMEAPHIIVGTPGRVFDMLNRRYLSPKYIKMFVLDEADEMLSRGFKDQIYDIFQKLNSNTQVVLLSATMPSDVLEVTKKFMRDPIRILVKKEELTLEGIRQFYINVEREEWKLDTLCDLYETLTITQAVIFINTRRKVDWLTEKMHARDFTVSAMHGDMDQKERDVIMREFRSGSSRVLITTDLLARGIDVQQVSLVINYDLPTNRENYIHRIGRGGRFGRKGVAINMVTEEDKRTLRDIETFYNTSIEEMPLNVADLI
Sequence of Eukaryotic initiation factor 4A-I (Mus musculus) (P60843 whole entry): as the sequence (P60842 whole entry) above
Sequence of Eukaryotic initiation factor 4A-II (Mus musculus) (P10630 whole entry): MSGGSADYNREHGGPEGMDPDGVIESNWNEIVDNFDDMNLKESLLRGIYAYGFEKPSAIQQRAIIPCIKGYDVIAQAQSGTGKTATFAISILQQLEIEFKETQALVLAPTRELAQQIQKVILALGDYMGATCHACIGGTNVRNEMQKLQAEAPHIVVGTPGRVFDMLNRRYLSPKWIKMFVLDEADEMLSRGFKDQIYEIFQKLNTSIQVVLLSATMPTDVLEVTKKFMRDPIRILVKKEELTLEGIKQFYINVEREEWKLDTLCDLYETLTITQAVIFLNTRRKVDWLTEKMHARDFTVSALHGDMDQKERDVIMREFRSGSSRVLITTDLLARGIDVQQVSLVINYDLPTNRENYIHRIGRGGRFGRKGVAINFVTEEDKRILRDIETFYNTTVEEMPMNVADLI
Sequence of Eukaryotic translation initiation factor 4E (Mus musculus) (P63073 whole entry): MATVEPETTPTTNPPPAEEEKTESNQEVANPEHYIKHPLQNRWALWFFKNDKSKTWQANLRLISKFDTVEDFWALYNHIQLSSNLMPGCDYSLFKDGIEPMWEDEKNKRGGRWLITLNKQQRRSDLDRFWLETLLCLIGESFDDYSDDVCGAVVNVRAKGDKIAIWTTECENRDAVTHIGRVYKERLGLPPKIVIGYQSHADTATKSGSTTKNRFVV
Sequence of ATP-dependent RNA helicase DDX3X (Mus musculus) (Q62167 whole entry): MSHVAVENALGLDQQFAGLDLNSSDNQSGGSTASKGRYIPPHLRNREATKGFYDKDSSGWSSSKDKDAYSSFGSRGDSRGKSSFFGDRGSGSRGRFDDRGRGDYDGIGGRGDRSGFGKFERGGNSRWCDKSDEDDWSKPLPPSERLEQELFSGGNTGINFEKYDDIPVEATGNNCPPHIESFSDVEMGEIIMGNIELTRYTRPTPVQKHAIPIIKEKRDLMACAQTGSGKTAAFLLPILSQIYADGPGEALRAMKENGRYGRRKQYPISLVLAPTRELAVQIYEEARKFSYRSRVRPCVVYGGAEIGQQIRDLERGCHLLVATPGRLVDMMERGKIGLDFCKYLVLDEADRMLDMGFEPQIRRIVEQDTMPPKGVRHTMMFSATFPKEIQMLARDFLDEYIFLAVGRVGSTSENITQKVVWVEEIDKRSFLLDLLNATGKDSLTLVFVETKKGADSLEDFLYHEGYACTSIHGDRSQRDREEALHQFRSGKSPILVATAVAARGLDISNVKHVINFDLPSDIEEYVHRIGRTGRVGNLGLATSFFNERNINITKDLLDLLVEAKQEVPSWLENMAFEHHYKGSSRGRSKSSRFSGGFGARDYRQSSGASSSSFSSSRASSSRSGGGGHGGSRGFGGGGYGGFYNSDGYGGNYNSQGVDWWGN
Sequence of Eukaryotic initiation factor 4A-III (Mus musculus) (Q91VC3 whole entry): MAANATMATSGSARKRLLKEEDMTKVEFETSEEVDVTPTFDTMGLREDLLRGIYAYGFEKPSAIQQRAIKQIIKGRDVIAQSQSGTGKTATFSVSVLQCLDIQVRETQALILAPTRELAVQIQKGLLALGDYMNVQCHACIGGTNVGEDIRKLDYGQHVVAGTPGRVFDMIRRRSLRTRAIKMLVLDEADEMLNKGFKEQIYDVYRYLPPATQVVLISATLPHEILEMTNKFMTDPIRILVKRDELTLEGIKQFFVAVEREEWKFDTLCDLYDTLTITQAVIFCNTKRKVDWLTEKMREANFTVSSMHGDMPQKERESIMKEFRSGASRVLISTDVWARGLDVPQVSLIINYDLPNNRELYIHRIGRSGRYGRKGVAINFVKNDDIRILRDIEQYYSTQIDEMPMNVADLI

Compound | Activity [1] | Activity [2] | Activity [3] | Activity [4] | Activity [5] | Activity [6] | inhibition [7] | Activity [8] | Activity [9]
COc1ccc([C@@]23Oc4cc(OC)cc(OC)c4[C@]2(O)[C@H](O)[C@H](C(=O)NCc2cn(CCCOCCOCCOCCCNC(=O)CCCC[C@@H]4SC[C@@H]5NC(=O)N[C@@H]54)nn2)[C@H]3c2ccccc2)cc1 | Active | inactive | inactive | Active | Active | Active | Active | inactive | inactive
COC(=O)[C@H]1[C@@H](O)[C@@]2(O)c3c(OC)cc(O[C@@H]4O[C@@H]([C@@H](O)CO)CO[C@H]4OC)cc3O[C@@]2(c2ccc(OC)cc2)[C@@H]1c1ccccc1 |  |  |  | Active | Active |  | Active |  | 
O=C(O)CCCC[C@@H]1SC[C@@H]2NC(=O)N[C@@H]21 |  |  |  | inactive | inactive |  |  |  | 
COc1ccc([C@@]23Oc4cc(O[C@@H]5O[C@@H]([C@@H](O)CO)CO[C@H]5OC)cc(OC)c4[C@]2(O)[C@H](O)[C@H](C(=O)NCc2cn(CCCOCCOCCOCCCNC(=O)CCCC[C@@H]4SC[C@@H]5NC(=O)N[C@@H]54)nn2)[C@H]3c2ccccc2)cc1 | Active | inactive | inactive | Active | Active | Active |  | inactive | inactive
C#CCNC(=O)[C@H]1[C@@H](O)[C@@]2(O)c3c(OC)cc(OC)cc3O[C@@]2(c2ccc(OC)cc2)[C@@H]1c1ccccc1 |  |  |  |  |  |  | Active |  | 
COC(=O)[C@H]1[C@@H](O)[C@@]2(O)c3c(OC)cc(OC)cc3O[C@@]2(c2ccc(OC)cc2)[C@@H]1c1ccccc1 |  |  |  | Active | Active |  | Active |  | 
COc1ccc([C@@]23Oc4cc(OC)cc(OC)c4[C@]2(O)[C@H](O)[C@H](C(=O)N(C)C)[C@H]3c2ccccc2)cc1 |  |  |  | Active | Active |  |  |  | 
COc1ccc([C@@]23Oc4cc(OC)cc(OC)c4[C@]2(O)[C@H](O)[C@H](C(=O)O)[C@H]3c2ccccc2)cc1 |  |  |  |  |  |  | Active |  | 
